Laboratory results published in article PMC7822819, “Discovery of a new class of integrin antibodies for fibrosis” (Scientific Reports, 2021).
Read-outs that look alike come from different tables or passages of the source.

How the values were obtained:
[1] = parameters: method as in PMID 15687321; details: humans; cited from earlier work
human αvβ6 = human αvβ6 (Homo sapiens, UniProt P06756+P18564); experiment: AlphaLISA integrin-ligand binding assay; format: biochemical; parameters: hαV 1 992; hβ6 1 709; made in house; host or cells: Expi293
Protocol: In the AlphaLISA integrin assays, we used a HEPES based buffer (25 mM HEPES pH 7.4, 137 mM NaCl, 1 mM MgCl2, 1 mM MnCl2, 2 mM CaCl2, 2.7 mM KCl, and 0.05% Tween-20). Optimal assay conditions were determined with a titration of the reagents for signal noise ratio (S/N), linear range, etc. For the respective integrins, we used the final concentrations described in Supplemental Table S3. Briefly, the testing antibody (8 μL) was added as a 4x (of Final testing concentration) solution in the HEPES buffer described previously into a 384w AlphaPlate (Perkin Elmer #6005350). Then the integrin and ligand were added sequentially as 8x (4 μL each). Plates were sealed and incubated at room temperature for 2 h. Then 4 × acceptor bead solution (8 μL) was added, and the plates were resealed and incubated at RT for 1 h. Finally, 4 × (8 μL) donor beads solution was added in a darkened room and incubated for 45 min at room temperature. Plates were read on the Envision (Perkin Elmer) in AlphaScreen mode within 3 h of donor bead addition.
Supplemental Table S3. integrin AlphaLIS A assay reagents and conditions Human A l phal i sa Inte gri n A ssays: Fi nal Condi ti ons […]
( batch de pe nde nt) anti body A l phaLi sa A cce ptor havb1 1. 4 nM 1. 0 nMα - Fi brone cti n human Fi brone cti n n/a A cce ptor be ads/ Pe rki n 10. 0 ug/ m 10. 0 ug/ m […]
havb3 3. 0 nM 10. […]

mouse αvβ6 = target: T1, mouse αvβ6 (Mus musculus, UniProt P43406+Q9Z0T9); experiment: Latent TGFβ activation assay (TMLC / CHOK1-integrin co-culture, PAI-1 luciferase); format: cell-based; details: in words
T1 construct: expressed in transfected cells
Protocol: Transfected mink lung epithelial cell (TMLC) cell line containing the TGFβ responsive PAI-1 promoter driving luciferase expression[29] and the CHO-K1 human and mouse αvβx integrin cell lines were grown under optimized growth conditions to 90% confluency. TMLC cells were trypsinized and plated at 25,000 cells/well in 50 μL in Costar clear bottom white walled plates. In a separate plate, 25 μL of serially diluted antibodies at 4X concentration were added to wells containing 25 μL of either 25,000 cells of human or mouse αvβx cells. After a brief mixing, the 50 μL mixture was transferred to the TMLC cell plates for a total volume of 100 μL and incubated at 37 °C for 16 h. 100 μL of ONE-Glo kit (#PRE6120) was added to each well and read after 3–5 min on the Envision plate reader.

CHOK1-α5KO-mαvβ1 cells = target: T2, CHOK1-α5KO-mαvβ1 cells (Mus musculus, UniProt P09055+P43406); experiment: Cell adhesion assay (Epic) on fibronectin; format: cell-based; details: in words
T2 construct: expressed in transfected cells; host or cells: CHOK1 with endogenous hamster α5 deleted by CRISPR
Protocol: For plate preparation, Epic 384-well assay plates (Corning #5040) were washed with OptiMEM (Gibco #31985-070) and coated with murine fibronectin (Abcam #ab92784) at a concentration of 0.1 μg/well for CHO-a5KO-mαvβ1 cells; murine vitronectin (Abcam #ab92727) at 0.075 μg/well for CHO-mαvβ3 cells; or murine vitronectin at 0.125 μg/well for CHO-mαvβ5 (all at a volume of 25 μl/well in OptiMEM), for 1 h. Coating solution was then removed by flicking and plates were washed with OptiMEM and blocked with 25 μl/well of assay buffer [1% Ovalbumin (Sigma #A5503-10G) in OptiMEM containing 1X Pen-Strep (Gibco #15140-148)]. A 5-min baseline reading was taken on a Corning Epic Plate Reader (Model: Epic BT-157900) before removing the assay buffer and adding cells pre-incubated with inhibitors. The Epic plate reader detects cellular mass redistribution (adhesion) on the plate surface as a picometer wavelength shift over time. […] Cells were incubated with the inhibitors for 1 h at RT with gentle rocking, after which 50 μL per well was transferred to the Epic assay plate, and a time course of cell adhesion was monitored for an additional 3 h.

Sequence of human αvβ6 (P06756 31-992): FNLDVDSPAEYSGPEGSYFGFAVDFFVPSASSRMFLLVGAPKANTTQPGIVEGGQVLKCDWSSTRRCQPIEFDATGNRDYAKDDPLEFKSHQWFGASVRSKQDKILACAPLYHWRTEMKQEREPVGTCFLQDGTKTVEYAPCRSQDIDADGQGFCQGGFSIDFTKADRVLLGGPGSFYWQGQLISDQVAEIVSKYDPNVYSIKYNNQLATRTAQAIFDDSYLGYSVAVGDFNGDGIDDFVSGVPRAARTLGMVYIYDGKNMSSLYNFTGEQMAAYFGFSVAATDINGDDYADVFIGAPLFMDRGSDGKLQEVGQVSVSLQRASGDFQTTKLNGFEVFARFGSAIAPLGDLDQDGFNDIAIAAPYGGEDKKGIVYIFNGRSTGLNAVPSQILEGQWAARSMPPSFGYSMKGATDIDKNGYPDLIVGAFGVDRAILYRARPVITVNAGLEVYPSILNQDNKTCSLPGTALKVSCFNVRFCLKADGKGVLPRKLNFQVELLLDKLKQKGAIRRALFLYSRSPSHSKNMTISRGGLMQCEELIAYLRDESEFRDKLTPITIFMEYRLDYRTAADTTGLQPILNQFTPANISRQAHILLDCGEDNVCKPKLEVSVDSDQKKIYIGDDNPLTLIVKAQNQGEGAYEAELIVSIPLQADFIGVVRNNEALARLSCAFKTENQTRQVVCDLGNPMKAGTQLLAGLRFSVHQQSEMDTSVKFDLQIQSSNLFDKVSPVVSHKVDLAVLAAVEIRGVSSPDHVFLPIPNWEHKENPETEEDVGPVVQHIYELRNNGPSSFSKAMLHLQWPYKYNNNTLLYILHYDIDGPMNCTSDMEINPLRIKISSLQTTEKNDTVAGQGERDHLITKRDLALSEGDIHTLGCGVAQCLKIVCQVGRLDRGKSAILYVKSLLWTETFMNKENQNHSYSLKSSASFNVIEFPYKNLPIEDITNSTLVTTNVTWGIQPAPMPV
Sequence of human αvβ6 (P18564 22-709): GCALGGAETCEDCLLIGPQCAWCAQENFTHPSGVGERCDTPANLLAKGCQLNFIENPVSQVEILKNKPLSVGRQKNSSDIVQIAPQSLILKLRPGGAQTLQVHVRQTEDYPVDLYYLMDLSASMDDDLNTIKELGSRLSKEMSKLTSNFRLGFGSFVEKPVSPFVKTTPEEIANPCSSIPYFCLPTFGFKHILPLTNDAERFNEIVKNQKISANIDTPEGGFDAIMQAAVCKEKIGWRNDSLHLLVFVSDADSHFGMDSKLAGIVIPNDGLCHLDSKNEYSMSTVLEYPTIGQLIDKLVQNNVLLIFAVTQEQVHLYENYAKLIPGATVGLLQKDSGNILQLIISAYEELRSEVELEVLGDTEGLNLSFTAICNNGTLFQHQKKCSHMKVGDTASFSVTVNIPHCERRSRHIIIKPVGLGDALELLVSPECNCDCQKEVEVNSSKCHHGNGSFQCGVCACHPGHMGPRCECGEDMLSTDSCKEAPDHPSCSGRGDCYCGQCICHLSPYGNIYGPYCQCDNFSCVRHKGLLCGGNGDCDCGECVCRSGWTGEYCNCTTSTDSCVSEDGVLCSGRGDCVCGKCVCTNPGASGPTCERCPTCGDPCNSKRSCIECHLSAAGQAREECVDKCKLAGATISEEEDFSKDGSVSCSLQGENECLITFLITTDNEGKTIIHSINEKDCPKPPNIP
T1 sequence (P43406 31-1044): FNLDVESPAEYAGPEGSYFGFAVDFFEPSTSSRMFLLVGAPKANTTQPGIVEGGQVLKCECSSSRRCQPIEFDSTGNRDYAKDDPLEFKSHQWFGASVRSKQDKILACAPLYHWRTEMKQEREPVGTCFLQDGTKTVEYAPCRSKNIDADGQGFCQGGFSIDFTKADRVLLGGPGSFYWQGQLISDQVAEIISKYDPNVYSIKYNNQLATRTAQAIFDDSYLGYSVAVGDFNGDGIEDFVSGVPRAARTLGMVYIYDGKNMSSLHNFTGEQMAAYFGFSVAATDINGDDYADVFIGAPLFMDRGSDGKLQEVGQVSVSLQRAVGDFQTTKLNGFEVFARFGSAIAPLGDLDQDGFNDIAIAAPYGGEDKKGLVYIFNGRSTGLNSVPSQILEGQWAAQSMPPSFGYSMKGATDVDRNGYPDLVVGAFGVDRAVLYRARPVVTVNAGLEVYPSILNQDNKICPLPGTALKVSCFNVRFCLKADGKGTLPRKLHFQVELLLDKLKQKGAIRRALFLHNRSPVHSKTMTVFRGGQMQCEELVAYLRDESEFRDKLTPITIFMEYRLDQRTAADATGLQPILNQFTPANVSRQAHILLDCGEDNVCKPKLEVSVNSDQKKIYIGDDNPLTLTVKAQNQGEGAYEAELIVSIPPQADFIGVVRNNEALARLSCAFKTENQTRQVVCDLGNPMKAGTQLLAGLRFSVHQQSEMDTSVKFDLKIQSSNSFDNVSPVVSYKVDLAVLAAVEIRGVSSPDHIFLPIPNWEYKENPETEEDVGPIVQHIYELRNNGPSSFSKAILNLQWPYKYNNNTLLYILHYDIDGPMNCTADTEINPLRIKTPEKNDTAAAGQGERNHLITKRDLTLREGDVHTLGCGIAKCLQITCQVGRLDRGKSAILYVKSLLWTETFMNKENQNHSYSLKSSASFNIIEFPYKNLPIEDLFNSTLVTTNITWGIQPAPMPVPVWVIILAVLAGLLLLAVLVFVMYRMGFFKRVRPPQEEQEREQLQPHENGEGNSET
T1 sequence (Q9Z0T9 22-787): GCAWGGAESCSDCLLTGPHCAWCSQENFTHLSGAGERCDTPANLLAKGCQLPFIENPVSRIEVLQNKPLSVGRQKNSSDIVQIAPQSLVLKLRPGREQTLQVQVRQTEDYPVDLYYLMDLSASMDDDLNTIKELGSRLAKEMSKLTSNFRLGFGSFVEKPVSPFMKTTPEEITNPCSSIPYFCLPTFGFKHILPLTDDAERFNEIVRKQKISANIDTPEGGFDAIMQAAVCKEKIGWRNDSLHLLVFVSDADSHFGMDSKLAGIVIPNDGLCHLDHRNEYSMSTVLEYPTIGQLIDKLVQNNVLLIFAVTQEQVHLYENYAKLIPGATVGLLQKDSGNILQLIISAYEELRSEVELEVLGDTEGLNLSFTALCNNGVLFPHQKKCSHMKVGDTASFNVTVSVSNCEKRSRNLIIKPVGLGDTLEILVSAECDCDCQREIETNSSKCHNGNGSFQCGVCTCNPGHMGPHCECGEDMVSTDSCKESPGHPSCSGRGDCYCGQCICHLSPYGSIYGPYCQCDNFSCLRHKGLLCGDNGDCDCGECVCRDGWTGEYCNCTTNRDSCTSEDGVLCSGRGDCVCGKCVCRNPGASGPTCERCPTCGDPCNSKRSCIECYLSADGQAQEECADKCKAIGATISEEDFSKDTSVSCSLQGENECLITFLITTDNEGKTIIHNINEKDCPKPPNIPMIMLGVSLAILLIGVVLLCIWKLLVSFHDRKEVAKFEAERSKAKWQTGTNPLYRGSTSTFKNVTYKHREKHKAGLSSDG
T2 sequence (P43406 31-1044): as the sequence (P43406 31-1044) above
T2 sequence (P09055 21-798): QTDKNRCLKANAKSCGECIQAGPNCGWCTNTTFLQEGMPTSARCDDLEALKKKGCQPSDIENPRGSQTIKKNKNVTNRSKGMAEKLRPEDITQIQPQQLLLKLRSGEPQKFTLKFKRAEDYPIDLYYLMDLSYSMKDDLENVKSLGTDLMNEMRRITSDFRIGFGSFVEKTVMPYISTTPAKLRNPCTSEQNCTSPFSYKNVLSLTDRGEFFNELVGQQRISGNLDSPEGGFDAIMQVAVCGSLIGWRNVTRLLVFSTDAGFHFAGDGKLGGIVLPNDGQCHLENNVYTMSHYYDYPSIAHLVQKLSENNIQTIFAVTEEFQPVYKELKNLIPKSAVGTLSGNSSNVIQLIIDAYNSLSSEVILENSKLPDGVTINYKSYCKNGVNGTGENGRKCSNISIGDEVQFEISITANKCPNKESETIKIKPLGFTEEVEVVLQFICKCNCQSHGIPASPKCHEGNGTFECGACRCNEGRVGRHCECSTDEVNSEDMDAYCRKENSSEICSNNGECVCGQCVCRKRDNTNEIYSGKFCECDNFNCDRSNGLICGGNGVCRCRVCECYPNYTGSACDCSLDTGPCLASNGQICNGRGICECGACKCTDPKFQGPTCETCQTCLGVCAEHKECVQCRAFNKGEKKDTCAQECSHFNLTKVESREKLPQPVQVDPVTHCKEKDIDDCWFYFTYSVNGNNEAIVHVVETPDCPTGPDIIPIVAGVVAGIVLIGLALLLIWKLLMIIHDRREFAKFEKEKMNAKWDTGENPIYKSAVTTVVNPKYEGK

- IC50 (human αvβ6; Fig. 3D, assay optimisation, read-out: IC50 human αvβ6 AlphaLISA): 3.8 nM
- IC50 (human αvβ6; Fig. 4B, read-out: IC50 Human integrin AlphaLISA assays: hαvβ6): 0.5 nM
- Inhibition of latent TGFβ activation, mouse αvβ6 co-culture (mouse αvβ6): strong inhibitory effect
- Effect on cell adhesion, mouse αvβ1-expressing CHOK1-α5KO cells (CHOK1-α5KO-mαvβ1 cells): potently reduced
SMILES: COc1ccc(C(CC(=O)O)N2CCN(CCCc3ccc4c(n3)NCCC4)C2=O)cn1 (centres unmarked) [MK-0429]
- Oral bioavailability [1]: good
